For 1 compound, solubility, recovery and half-life results are on record in patent US11389456B2, “Compounds and methods for treating oxalate-related diseases” (OxaluRx, Inc., priority 2018, dated 2022).

Converted amounts (≈) assume the structure as drawn.

A short description of data set [1]: Solubility in aqueous solution (deionized, distilled water). The data set is classed as physicochemical. Particulars: kinetic from dmso stock, 1% DMSO, read-out: Aqueous Solubility H2O. The procedure, abridged: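 DMSO stock (10 mM) diluted into 100 mM phosphate buffer pH 7.4, or into deionized distilled water for the aqueous assay, at 1% final DMSO and shaken 1 h at room temperature. After centrifugation, supernatants quantified by LC-MS/MS against a calibration curve with internal standard.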

A short description of data set [2]: Protein binding (plasma equilibrium dialysis). Format: in vitro ADME. The settings on record: 5 hours at 37° C. The gist of the method:
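Compound spiked into plasma at 1 μM final (0.2% DMSO) and dialysed against phosphate buffer for 5 hours at 37 °C with shaking. Donor and receiver samples, matrix-matched and acetonitrile-quenched with internal standard, quantified by LC/MS/MS alongside 0-hour plasma samples.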
(In general: In equilibrium dialysis free small molecules cross a membrane that holds back macromolecules.)

Data set [3] can be described thus: Stability in human plasma. Format: in vitro ADME. The settings on record: read-out: Plasma Stability T1/2. The procedure, abridged: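 Pooled human plasma (pH 7.4-8) at 37° C, test compound spiked from a 0.02 mM solution in phosphate buffer with 0.5% BSA. Samples taken at 0, 5, 15, 30, 45 and 60 min, quenched with acetonitrile containing internal standard, and remaining compound measured by LC/MS.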

One may read the solubility as the concentration that dissolves in the medium under given conditions. Regarding `O=C(O)c1nn[nH]c1Sc1ccc(Cl)cc1` [Example I-001, 5-((4-chlorophenyl)thio)-1H-1,2,3-triazole-4-carboxylic acid], the solubility at 1 h in data set [1] came out at 83.8 µM (≈ 21.4 µg/mL). The same compound showed a recovery at 5 h, 1 μM in data set [2] of 75.4%. For the same compound, the half-life at 2 μM in data set [3] was found to be 42.3 min.
